Here are results for one compound from article PMC1448180, “Small-molecule and mutational analysis of allosteric Eg5 inhibition by monastrol” (BMC Chemical Biology, 2006).

As usually defined, the IC50 is the concentration that inhibits the measured activity by half.

Changes are numbered by the printed parent chain. Where two headings read alike, the source gives them in different places.

One test has as its system BS-C-1 cells. Briefly: Monoaster formation in tissue culture cells (manual count of mitotic cells). The format is cell-based, green monkey. The settings on record: Chlorocebus sabaeus, BSC-1, 6 h, read-out: Cells: monoaster formation score (drug concentration with roughly equal monastral and bipolar spindles). How it is done: (§1) Figure 2 Structure-activity relationship of monastrol derivatives. (A) Scheme depicting the Biginelli condensation, a one-pot reaction for preparing monastrol derivatives. […] Each data point is the average of three independent experiments. […] Each cell-based assay was performed in duplicate.
Conditions for growing the following cell lines are as described: D. rerio AB9 (37), D. melanogaster KC167 [38], and BS-C-1 green monkey kidney cells. For immunofluorescence microscopy, cells were grown on 12 mm circular coverslips to 30 % confluence, treated medium supplemented with drug and 0.2% DMSO, or a DMSO alone, for 6 hours, fixed with formaldehyde, and stained for DNA and microtubules, as described. D. melanogaster KC167 cells were cultured in Schneider's Drosophila Medium (GIBCO) whereas D. rerio AB9 cells and BS-C-1 green monkey kidney cells were cultured at 37°C in Dulbecco's Minimal medium in the presence of 10 % heat inactivated fetal calf serum.

The next test deals with T1, hEg5-367H (Homo sapiens, UniProt P52732).
T1 construct: motor domain (amino acid residues 1–367) of human Eg5; His6 (C); made in house
T1 sequence (P52732 1-367): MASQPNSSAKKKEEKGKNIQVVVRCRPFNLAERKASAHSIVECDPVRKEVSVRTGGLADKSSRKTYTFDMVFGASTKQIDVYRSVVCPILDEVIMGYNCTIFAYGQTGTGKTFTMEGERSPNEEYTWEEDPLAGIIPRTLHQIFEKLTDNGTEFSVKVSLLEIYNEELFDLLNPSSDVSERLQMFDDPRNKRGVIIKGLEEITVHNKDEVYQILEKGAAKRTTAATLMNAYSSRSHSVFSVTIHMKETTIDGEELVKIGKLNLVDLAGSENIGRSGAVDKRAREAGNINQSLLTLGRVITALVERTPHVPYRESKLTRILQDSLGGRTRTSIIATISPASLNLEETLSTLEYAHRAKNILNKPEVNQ
In words: ATP hydrolysis by recombinant human Eg5 motor domain (NADH-enzyme coupled assay). The format is biochemical. How it is done: as §1
We used a modified PCR mutagenesis protocol to introduce mutations into hEg5-367H, a plasmid encoding the C-terminally His6-tagged motor domain (amino acid residues 1–367) of human Eg5. The wild-type and mutant proteins were expressed and purified using Ni-NTA affinity chromatography and concentrated to between 3 and 10 mg/ml protein as described.
(§2) ATP hydrolysis by recombinantly expressed kinesin motor domains was measured using an NADH-enzyme coupled assay. ATP hydrolysis was measured in KC25 buffer supplemented with 5 μM taxol, 1 mM ATP-KOH (pH 7.0), the appropriate concentration of motor domain, and the appropriate concentrations of taxol-polymerized microtubules.

The subject of another test is BimC. On the set-up: method as in PMID 12525161. The settings on record: cited from earlier work.
Another test relates to human Eg5. On the set-up: method as in PMID 10542155, PMID 10973989. The settings on record: cited from earlier work.
Another test has as its system Xenopus Eg5. On the set-up: method as in PMID 10542155, PMID 10973989. The settings on record: cited from earlier work.
The target in the next test is T2, hEg5-367H (L214I) (Homo sapiens, UniProt P52732, L214I).
T2 sequence (P52732 1-367 L214I): T1 sequence (P52732 1-367) with L214I
In words: ATP hydrolysis by Eg5 motor domain mutant L214I. It is filed as biochemical. The settings on record: Figure 4B; legend: basal ATP hydrolysis; read-out: IC50(μM) of monastrol, (L214I).
From the text: (§3) Figure 4 Mutagenesis of the monastrol binding site in human Eg5. (A) Design of mutations in the human Eg5 motor domain. Amino acid side chains that are not conserved between Eg5 and conventional kinesin were targeted, either introducing chimeric or rationally designed mutations (asterix for targeted point mutants) to test the contribution of residues to the drug-sensitivity of Eg5. (B) Steady-state enzymatic parameters for engineered human Eg5 motor domain mutants. Steady-state ATP hydrolysis by Eg5 was measured using an NADH-enzyme coupled assay varying the concentration of ATP, microtubules, or monastrol to obtain the microtubule concentration for half-maximal stimulation (K0.5MT), the maximal rate of microtubule-stimulated ATP hydrolysis (kcat), and the concentration of monastrol that inhibits basal ATP hydrolysis by 50 % (IC50), as described.
(§4) We used a modified PCR mutagenesis protocol to introduce mutations into hEg5-367H, a plasmid encoding the C-terminally His6-tagged motor domain (amino acid residues 1–367) of human Eg5. […]
as §2

The target in the next test is T3, hEg5-367H (R119L) (Homo sapiens, UniProt P52732, R119L).
T3 sequence (P52732 1-367 R119L): T1 sequence (P52732 1-367) with R119L
In words: ATP hydrolysis by Eg5 motor domain mutant R119L. It is filed as biochemical. The settings on record: Figure 4B; legend: basal ATP hydrolysis; read-out: IC50(μM) of monastrol, (R119L).
From the text: as §3, §4, §2

Take `CCOC(=O)C1=C(C)NC(=S)NC1c1cccc(O)c1` (centres unmarked) [Monastrol]: in the test with BS-C-1 cells, the EC50 was less than 50 µM. Besides, the half-inhibitory concentration (IC50) at hEg5-367H (500 nM hEg5-367H, KC25 buffer, 1 mM ATP-KOH (pH 7.0), 1 μM taxol-stabilized microtubules, read-out: IC50 (μM), inhibition of ATP hydrolysis by Eg5 motor domain) is 5.2 ± 0.4 µM; at hEg5-367H (wild-type motor domain, Figure 4B, legend: basal ATP hydrolysis, read-out: IC50(μM) of monastrol, hEg5-367H), 10 ± 2 µM; on hEg5-367H (L214I), 63 ± 7 µM; on hEg5-367H (R119L), 17 ± 2 µM. The “Inhibition of BimC” value in the test on BimC is given as “not”. Moreover, in the test on human Eg5, the “Inhibition of human Eg5” value is “inhibit”. In the test with Xenopus Eg5, the “Inhibition of Xenopus Eg5” value is listed as “inhibit”.
